Measured values: US5451571A (The Cleveland Clinic Foundation, priority 1994, dated 1995)
Entries after “also recorded” stand apart in the source; their conditions may differ. Like-named read-outs stand apart in the source and are kept apart here. Residues, ends and D or L forms follow the SMILES beside them. No end group written: not given here. *: point of attachment. Cbz = O=C(OCc1ccccc1)*

Columns and labels:
[1] = test system: DOCA-salt hypertensive rats; settings: cited from earlier work
[2] = target: T1, carboxypeptidase A (Homo sapiens, UniProt P15085); settings: cited from earlier work
T1 sequence (P15085 111-419): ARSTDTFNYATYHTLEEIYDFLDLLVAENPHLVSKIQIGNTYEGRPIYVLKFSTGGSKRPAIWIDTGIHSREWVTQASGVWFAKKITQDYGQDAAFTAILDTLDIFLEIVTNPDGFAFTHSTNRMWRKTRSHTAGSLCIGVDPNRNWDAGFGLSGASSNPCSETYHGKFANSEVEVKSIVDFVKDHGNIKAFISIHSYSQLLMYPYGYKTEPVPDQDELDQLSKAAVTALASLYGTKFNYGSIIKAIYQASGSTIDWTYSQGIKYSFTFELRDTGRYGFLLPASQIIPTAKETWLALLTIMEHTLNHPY

[3] = test system: SHR; experiment: Blood pressure effect of SCH 39,370 in SHR; assay type: in vivo, rat
[4] = test system: spontaneously hypertensive rats (SHR); experiment: Blood angiotensin peptides (RIA) after i.v. Ang I in conscious SHR with enzyme inhibitors; assay type: in vivo, rat
Description: (§1) All experiments were carried out in strict adherence to the principles sponsored by the American Physiological Society. Male 16-week-old SHR(319±4 gm) and WKY(315±4 gm) controls (Charles River, Wilmington, Mass.) were housed in rooms maintained on a 12 hr light-dark cycle. Animals ate a solid diet of rat chow (Purina, Bedford, Ohio) and had free access to water. Cannulas (PE-50 and PE-10, Clay Adams Becton Dickinson, Parsippany, N.J.) were implanted into a femoral artery and vein using aseptic conditions in rats anesthetized with 1% halothane 24 hours beforehand. The free ends of the cannulas were tunneled under the skin and externalized at the back of the neck.
(§2) Conscious rats were divided into five groups. Group I (n=4 SHR and 4 WKY) received an i.v. injection of 0.9% NaCl. Group II (n=4 SHR and 4 WKY) was given an i.v. injection of enalaprilat (MK-422,2 mg/kg). Group III (n=4 SHR and 4 WKY) was injected with (N-{N-[1-(S)-carboxy-3-phenylpropyl]-(S)-phenylalanyl}-(S)-isoserine) at a dose of 15 mg/kg. […] Group IV (n=4 SHR and 4 WKY) received both MK-422 (2 mg/kg) and SCH 39,370 (15 mg/kg). Group V (n=3 SHR and 3 WKY) were given MK- 422 (2 mg/kg) and Z-prolyl-prolinal (5 mg/kg), a specific inhibitor of prolyl endopeptidase (Friedman TC, Orlowski M, Wilk S: Prolyl Endopeptidase: Inhibition in vivo by N-benzyloxycarbonyl-prolyl-prolinal. J. Neurochem. 42:237-241,1984). Either saline (vehicle) or the enzyme inhibitors were administered 20 minutes before an i.v. injection of 0.2 ml of Ang I (2 nmol) in heparinized saline. Serial samples of arterial blood (0.2 ml) were rapidly collected into ice-chilled tubes containing 5 ml of 80% ethanol/0.1N HCL every 15-30 sec before and after injection of Ang I. The amount of blood removed in each sample was replaced with an equal volume of saline. The dead space (0.08 ml) of the femoral artery catheter was cleared of any remaining saline or blood before obtaining the samples.
(§3) Peptide Extraction and Analyses: Samples were centrifuged at 5,000 g for 20 minutes; the supernatant was stored for 12 hours at -20° C. After a second centrifugation step (10,000 g, 20 min) the supernatant was diluted 1:1 (V:V) with 1% heptaflurobutyric acid (HFBA), stored for 4-6 […] hours at 4° C., and centrifuged again at 15,000 g. This supernatant was further diluted 1:4 with 0.2% HFBA and concentrated on a Sep-Pak Vac Cartridge (Millipore Co., Milford, Mass.) activated beforehand with 3 ml of 60% acetonitrile/0.2% HFBA, 3 ml of 0.1% bovine serum albumin in 0.2% HFBA, and 5 ml of HFBA. After application of the supernatant, the column was washed with 10 ml of 0.2% HFBA. Angiotensin peptides were eluted with 8 ml of 60% acetonitrile/0.2% HFBA. Fractions were evaporated to dryness in a vacuum centrifuge (Savant Instrument Inc., Hicksville, N.Y.) for measurements by radioimmunoassay (RIA). Different aliquots of the samples were assayed to ensure linearity. Peptide recovery for Ang I added to the acid ethanol solution prior to blood sample averaged 85±4%, n=6, SFM): peptide values were not corrected for recovery. Moreover, no in vitro conversion of Ang I into either Ang-(1-7) or Ang II was observed.
(§4) The RIAs employed by the inventors to determine concentrations of Ang I, Ang II, and Ang-(1-7) are described in detail elsewhere. See, Chappell MC, Brosnihan KB, Diz DI, Ferrario CM: Identification of Angiotensin-(1-7) in Rat Brain: Evidence for Differential Processing of Agiotensin Peptides. J. Biol. Chem. […]:16518-16523,1989; and, Kohara K, Brosnihan KB, Chappell MC, Khosla MC, Ferrario CM: Angiotensin-(1-7): A Member of Circulating Angiotensin Peptides. Hypertension 17:131-138, 1991. […] The sensitivity of the Ang I assay (defined as twice the minimum detection level) averaged 5 fmol/tube. The Ang II antibody was produced by the inventors. […] The sensitivity of the Ang II RIA is 0.5 fmol/tube. The antibody of Ang-(1-7) (Core No. 1) was obtained in the inventors laboratory. […]

[5] = test system: Wistar Kyoto (WKY) rats; experiment: Blood angiotensin peptides (RIA) after i.v. Ang I in conscious WKY with enzyme inhibitors; assay type: in vivo, rat
Description: as §1, §2, §3, §4

[6] = target: ACE (Homo sapiens, UniProt P12821); settings: cited from earlier work
[7] = test system: NEP 24.11; settings: cited from earlier work
[8] = supernatants of dog brain tissue punch homogenates (ACE activity assay); settings: mongrel dogs, 37° C., up to 15 minutes
[9] = test system: vascular smooth muscle cultures (VSMC) from normotensive (WKY) rats; experiment: 125I-Ang I metabolism by intact vascular smooth muscle cultures of WKY (HPLC); assay type: cell-based, rat; settings: for effect on the levels of 125I-Ang-(1-7) / inhibition of the formation of 125I-Ang-(1-7) from 125I-Ang I: 10 μM
Description: (§6) Aortic smooth muscle cells were isolated according to the following general process. The adventia and outer third medial layer were removed from segments (2 cm^2) of the thoracic aorta from SHR or WYK rats, minced into 1 cm^2 pieces and allowed to adhere on plastic for 15 minutes. The explants were incubated with Dulbecco's modified Eagles' medium (DMEM, Irvine Scientific CO., Irvine, Calif.) diluted 1:1 with F12 (Irvine Scientific) and supplemented with 10% fetal calf serum and 1% penicillin/streptomyocin in a humid atmosphere of 95% air, 5% CO2 at 37° five days and the tissues were removed after a halo of cells appeared around the explant. […] The culture medium was changed daily for the three days and thereafter, every third day. The smooth muscle cells were evaluated both for their morphological appearance and their recognition of a monoclonal antibody to smooth muscle-type alpha actin (A 2547, Sigma Chemical, St. Louis, MO).
(§7) For metabolism studies, cell monolayers (passage 4 to 6) in 24 well plates were washed twice with 1.0 ml of Krebs-Ringer solution (125 mM NaCl, 5 mM KCl, 1.0 mM CaCl2, 1.2 mMMgSO4, 25 mM HEPES, pH 7.4 and 6 mM glucose). Intact cells were incubated with ^125 I-Ang I (0.2-0.4 nM, final concentration) both in the presence and absence of enzyme inhibitors in 0.25 ml of Krebs buffer at 37° C. At selected time points, aliquots (0.05 ml) were withdrawn from the well, diluted in 0.15 ml 80% acetonitrile (ACN)/0.2% heptafluorobutyric acid (HFBA) stored at -80° C. prior to analysis by high performance liquid chromatography (HPLC). In addition, 0.20 ml of the medium, exposed to the cells for 60 minutes were incubated with ^125 I-Ang I for 60-120 minutes at 37° C. and analyzed by HPLC.
(§8) ^125 I-products were characterized by HPLC using a heptafluorobutyric acid (HFBA) solvent system. This system consisted of 0.13% HFBA (mobile phase A) and 80% ACN/0.13% HFBA (mobile phase B) and the analysis was performed on a Kratos 400 HPLC equipped with a Waters Nova-Pak C18 column (Waters, MA, 2.1×15 mm) and an Aquapore column (Waters, MA, 2.1×15 mm) and an Aquapore C8 guard column (Applied Biosystems, 3.2×1.5 mm). The gradient conditions consisted of 20-50% B Linear (30 min) and 50% B isocratic (10 min) at a flow rate of 0.3 ml/min at room temperature. HPLC fractions were collected every 0.5 min and counted in a gamma counter. Products were identified by comparison of their retention times to those of standard ^125 I-angiotensin peptides. To further assess the identity of each radioactive peak, either the incubation samples or ^125 I-products were rechromatographed using a trifluoracetic acid (TFA) solvent. This system consisted of 0.1% TFA, pH 4.5 (mobile phase A) and 60% ACN/0.1% TFA pH 4.5 (mobile phase B). A linear gradient of 15-45% B (30 min) and 45% B isocratic (10 min) at 0.3 ml/min at room temperature was performed on the HPLC system described above.
(§9) Statistics: Differences in the generation of ^125 I-peptides under various conditions were assessed by analyses of variance followed by Newman Keuls multiple comparison test. The criterion for statistical significance was set at p<0.05.

[10] = test system: vascular smooth muscle cultures (VSMC) from spontaneously hypertensive rats; settings: for effect on the levels of 125I-Ang-(1-7) / inhibition of the formation of 125I-Ang-(1-7) from 125I-Ang I: 10 μM
Description: as §6, §7, §8, §9

[11] = swine urine; settings: cited from earlier work
[12] = vascular smooth muscle; settings: cited from earlier work
[13] = preparations of synaptic membranes from the rat brain; settings: cited from earlier work
[14] = cultured mouse spinal cord cells; settings: cited from earlier work
[15] = test system: NEP 24.11; settings: human; cited from earlier work
[16] = human urine; settings: cited from earlier work
[17] = test system: NG108 cells; experiment: Ang-(1-7) production from Ang I in NG108 cells; assay type: cell-based
[18] = test system: prolylendopeptidase; experiment: 125I-Ang-(1-7) production from 125I-Ang I in dog hypothalamus homogenates (HPLC); assay type: biochemical
Description: (§10) As a result of these discoveries, the enzyme(s) involved in the production of Ang-(1-7) in homogenates (20 mM TRIS HCl buffer, pH 7.5) of dog hypothalamus were evaluated.

[19] = target: T2, prolylendopeptidase (Canis lupus familiaris, UniProt A0A8I3N6C8); experiment: as above; assay type: biochemical; settings: DTT 1 mM
T2 construct: from tissue; host or cells: dog hypothalamus homogenate, 10,000 g supernatant
Description: as §10

[20] = mammals; cited from earlier work
[21] = test system: normotensive Wistar-Kyoto control rats (WKY); experiment: Third ventricle push-pull perfusion in WKY, MAP and HR; assay type: in vivo, rat
Description: (§5) In order to assess the effectiveness of Z-Proprolinal, the specific inhibitor of prolyl endopeptidase, in controlling blood pressure the following study was conducted. […] Similar studies were performed in age-matched normotensive Wistar-Kyoto control rats (WKY) (obtained from Taconic Farms, New York).

[22] = test system: spontaneously hypertensive rats (SHR); experiment: Third ventricle push-pull perfusion in SHR, MAP and HR; assay type: in vivo, rat
Description: as §5

T2 sequence (A0A8I3N6C8 1-710): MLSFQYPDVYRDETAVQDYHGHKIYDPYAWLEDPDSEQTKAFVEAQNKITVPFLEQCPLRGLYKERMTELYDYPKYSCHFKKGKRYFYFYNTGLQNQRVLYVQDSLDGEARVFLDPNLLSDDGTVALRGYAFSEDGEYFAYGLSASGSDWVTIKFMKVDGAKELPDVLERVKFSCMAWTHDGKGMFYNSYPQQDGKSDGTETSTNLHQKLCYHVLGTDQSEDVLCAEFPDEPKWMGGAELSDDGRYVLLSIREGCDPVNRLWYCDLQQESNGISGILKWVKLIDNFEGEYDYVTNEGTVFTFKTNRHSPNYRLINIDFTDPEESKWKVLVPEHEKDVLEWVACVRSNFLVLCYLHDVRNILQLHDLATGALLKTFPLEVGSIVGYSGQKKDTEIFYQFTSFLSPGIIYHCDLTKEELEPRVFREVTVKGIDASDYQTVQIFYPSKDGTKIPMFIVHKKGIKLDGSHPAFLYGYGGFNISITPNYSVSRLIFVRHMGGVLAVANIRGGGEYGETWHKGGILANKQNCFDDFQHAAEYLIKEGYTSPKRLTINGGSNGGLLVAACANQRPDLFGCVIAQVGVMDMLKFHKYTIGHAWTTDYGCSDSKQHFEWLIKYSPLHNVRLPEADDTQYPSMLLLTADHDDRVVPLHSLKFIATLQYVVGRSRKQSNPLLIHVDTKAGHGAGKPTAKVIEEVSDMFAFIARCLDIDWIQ
Sequence of ACE (P12821 30-1306, species assumed): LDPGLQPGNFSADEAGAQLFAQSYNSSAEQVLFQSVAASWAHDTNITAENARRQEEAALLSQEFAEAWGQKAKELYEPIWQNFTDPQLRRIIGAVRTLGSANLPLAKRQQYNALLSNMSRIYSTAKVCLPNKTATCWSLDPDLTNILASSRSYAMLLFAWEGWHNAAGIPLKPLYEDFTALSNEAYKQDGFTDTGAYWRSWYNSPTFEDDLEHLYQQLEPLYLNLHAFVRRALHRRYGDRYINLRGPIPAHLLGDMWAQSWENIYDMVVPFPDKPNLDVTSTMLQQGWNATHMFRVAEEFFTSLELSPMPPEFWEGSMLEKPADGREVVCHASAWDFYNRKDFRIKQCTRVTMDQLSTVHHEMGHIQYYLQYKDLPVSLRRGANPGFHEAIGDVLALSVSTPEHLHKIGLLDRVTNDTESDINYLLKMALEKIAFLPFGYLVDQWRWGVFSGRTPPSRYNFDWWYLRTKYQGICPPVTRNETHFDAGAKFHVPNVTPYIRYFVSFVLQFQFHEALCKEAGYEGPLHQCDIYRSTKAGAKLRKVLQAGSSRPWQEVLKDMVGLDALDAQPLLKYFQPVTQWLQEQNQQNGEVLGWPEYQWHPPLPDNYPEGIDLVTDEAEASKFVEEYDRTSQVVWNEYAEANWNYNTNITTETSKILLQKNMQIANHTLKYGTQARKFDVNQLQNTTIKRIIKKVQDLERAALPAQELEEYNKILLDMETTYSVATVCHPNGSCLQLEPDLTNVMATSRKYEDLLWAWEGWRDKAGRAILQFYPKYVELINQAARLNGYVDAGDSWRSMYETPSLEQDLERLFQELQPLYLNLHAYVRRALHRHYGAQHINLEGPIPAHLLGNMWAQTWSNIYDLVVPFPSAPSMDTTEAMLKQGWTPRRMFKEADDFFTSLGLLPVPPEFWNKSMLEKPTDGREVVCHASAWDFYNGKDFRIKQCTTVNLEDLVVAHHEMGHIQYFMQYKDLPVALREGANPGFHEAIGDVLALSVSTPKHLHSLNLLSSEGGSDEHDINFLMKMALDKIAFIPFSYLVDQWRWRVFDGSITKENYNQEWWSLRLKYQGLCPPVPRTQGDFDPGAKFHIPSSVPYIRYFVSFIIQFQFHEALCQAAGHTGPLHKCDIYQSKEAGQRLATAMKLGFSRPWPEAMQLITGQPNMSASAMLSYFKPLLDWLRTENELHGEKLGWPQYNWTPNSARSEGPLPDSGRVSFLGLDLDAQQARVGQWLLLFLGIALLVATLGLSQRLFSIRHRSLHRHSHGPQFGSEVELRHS

Molecule: O=C(O)[C@H](CCc1ccccc1)N[C@@H](Cc1ccccc1)C(=O)NC[C@H](O)C(=O)O [SCH 39,370, N-{N-[1-(S)-carboxy-3-phenylpropyl]-(S)-phenylalanyl}-(S)-isoserine]
- effect on blood pressure [1]: antihypertensive effects
- inhibition of carboxypeptidase A [2]: does not inhibit
- effect on blood pressure [3]: did not reduce blood pressure
- reduction of peak levels of Ang-(1-7) below vehicle ([4]; SHR): 74%
- peak level of Ang I in blood ([4]; SHR, 15 seconds after Ang I 2 nmol i.v., saline (label Ang I) or SCH 39,370 15 mg/kg 20 minutes before): 6.2 ± 0.4 pmol/mL
- peak level of Ang II in blood ([4]; SHR, 15 seconds after Ang I 2 nmol i.v., saline (label Ang I) or SCH 39,370 15 mg/kg before): 27.2 ± 3.8 pmol/mL
- change of baseline and peak plasma levels of Ang II ([4]; SHR, SCH 39,370): double
- formation / levels of Ang-(1-7) versus vehicle ([4]; SHR, SCH 39,370 15 mg/kg alone, difference statistically significant): decreased; also recorded: inhibited the formation of Ang-(1-7)
- baseline level of Ang II ([4]; SHR, after SCH 39,370 15 mg/kg, before 0.02±0.02): 0.18 ± 0.04 pmol/mL
- inhibition of Ang-(1-7) production at larger doses ([4]; preliminary experiments, doses above 15 mg/kg, strain not stated): no further inhibition
- reduction of peak levels of Ang-(1-7) below vehicle [5]: 51%
- peak level of Ang I in blood ([5]; 15 seconds after Ang I 2 nmol i.v., saline (label Ang I) or SCH 39,370 15 mg/kg 20 minutes before): 4.3 ± 0.4 pmol/mL
- peak level of Ang II in blood ([5]; 15 seconds after Ang I 2 nmol i.v., saline (label Ang I) or SCH 39,370 15 mg/kg before): 21.8 ± 5.4 pmol/mL
- change of baseline and peak plasma levels of Ang II ([5]; SCH 39,370): double
- formation of Ang-(1-7) versus vehicle ([5]; SCH 39,370 15 mg/kg alone, difference not significant (p>0.05)): inhibited the formation of Ang-(1-7)
- baseline level of Ang II ([5]; after SCH 39,370 15 mg/kg, before 0.04±0.02): 0.12 ± 0.04 pmol/mL
- inhibition of ACE [6]: does not inhibit
- inhibition of NEP 24.11 [7]: specific and potent inhibitor

Molecule: His-Leu
- not cleaved [8]: hydrolysis of the product His-Leu was less than 6%

Molecule: O=C(O)CNC(=O)C(CS)Cc1ccccc1 (stereo not drawn) [thiorphan]
- effect on the levels of 125I-Ang-(1-7) [9]: no effect
- effect on the levels of 125I-Ang-(1-7) ([10]; SHR VSMC): no effect

Molecule: Asp-Arg-Val-Tyr-Ile-His-Pro-Phe
- fragment found [11]: Angiotensin-(1-7)
- fragment found [12]: Angiotensin-(1-7)
- fragment found [13]: Angiotensin-(1-7)
- fragment found [14]: Angiotensin-(1-7)
- cleaved bond [15]: Tyr4-Ile5
- fragment found [16]: Angiotensin-(1-7)

Molecule: C[C@H](NC(=O)[C@H](C)NC(CCc1ccccc1)C(=O)O)C(=O)N[C@@H](Cc1ccccc1)C(=O)Nc1ccc(C(=O)O)cc1 (stereo partly drawn) [cFP-AAF-pAB, Carboxyphenylpropyl-alanyl-alanyl-phenylalanyl-para-aminiobenzoate]
- inhibition of the formation of 125I-Ang-(1-7) from 125I-Ang I [9]: 90%
- inhibition of the formation of 125I-Ang-(1-7) from 125I-Ang I ([9]; listed as cPf-AAF-pAB): over 90%
- inhibition of the formation of 125I-Ang-(1-7) from 125I-Ang I ([10]; SHR VSMC): 90%
- inhibition of the formation of 125I-Ang-(1-7) from 125I-Ang I ([10]; SHR VSMC, listed as cPf-AAF-pAB, 10 µM): over 90%

Molecule: CC(C)C[C@H](NP(=O)(O)O[C@@H]1O[C@@H](C)[C@H](O)[C@@H](O)[C@H]1O)C(=O)N[C@@H](Cc1c[nH]c2ccccc12)C(=O)O [Phosphoramidon]
- production of Ang-(1-7) in the presence of the inhibitor [17]: not inhibited
- inhibition of Ang-(1-7) formation [18]: 12%
- production of Ang-(1-7) in the presence of the inhibitor ([18]; canine hypothalamic homogenates): not inhibited

Molecule: O[C@@H](CS)[C@@H](O)CS [DTT]
- increase in the rate of generation of Ang-(1-7) [19]: about three fold

Molecule: O=S(=O)(O)c1cc[c]([Hg][Cl])cc1 [PCMS, p-chloromercuriphenylsulfonate acid]
- inhibition of 125I-Ang-(1-7) levels ([9]; 1 μM, data not shown): to a similar extent as that observed with cPF-AAF-pAB
- inhibition of 125I-Ang-(1-7) levels ([10]; SHR VSMC, 1 μM, data not shown): to a similar extent as that observed with cPF-AAF-pAB

Molecule: O=C[C@@H]1CCCN1C(=O)[C@@H]1CCCN1C(=O)OCc1ccccc1 [ZPP, N-benzyloxycarbonyl-prolylprolinal] (Cbz-Pro-Pro-aldehyde)
- effect on the levels of 125I-Ang-(1-7) [9]: no effect
- blood-brain barrier (BBB) passage [20]: readily traverses the blood-brain barrier
- effect on either MAP or HR ([21]; WKY (n=13), ZPP 1 μM): no effect
- MAP with ZPP perfusion ([21]; WKY, ZPP 1 μM, from 99±6): 100±7 mmHg
- HR with ZPP perfusion ([21]; WKY, ZPP 1 μM, from 379±18): 368±27 beats/min
- reduction in MAP by K+ in the presence of ZPP ([21]; WKY, K+ alone -16±3 mmHg): -6±4 mmHg
- reduction in HR by K+ in the presence of ZPP ([21]; WKY, K+ alone -37±7 beats/min): -13±8 beats/min
- fall in MAP in response to depolarizing K+ after ZPP pretreatment ([22]; K+ alone -19±4 mmHg): did not change the magnitude of the fall in MAP
- HR response to depolarizing K+ after ZPP pretreatment ([22]; K+ alone -32±7 beats/min): attenuated
- decrease in mean arterial pressure ([22]; ZPP 1 μM perfusion of third ventricle, n=13, basal MAP 156±5 mmHg): -37±4 mmHg
- heart rate (HR) with ZPP perfusion ([22]; ZPP 1 μM, from 384±10): 376±19 beats/min
- effect on the levels of 125I-Ang-(1-7) ([10]; SHR VSMC): no effect

Molecule: ^125 I-Ang I: 125I-labelled Ang I used as substrate (DRVYIHPFHL; also: 125I label; UniProt P01019 25-34, looked up)
- 125I-Ang-(1-7) generation as share of the total 125I-Ang I metabolism [10]: 65-80%
- main peptide product in the medium [10]: ^125 I-Ang-(1-7)
